Measured values reported in patent US6610791B2, “Photosensitive compound and photosensitive resin” (Toyo Gosai Kogyo Co., Ltd., priority 2000, dated 2003).

Assay: Measurement of solubility in water at 25° C.
Format: physicochemical
Protocol: Measurement of [5-(sodium 4-azidobenzylidene-2-sulfonate)-3-(N-(4,4′-dimethoxybutyl)carbamoyl)methyl]-rhodanine in Terms of Solubility in Water and Molar Absorption Coefficient
Measurement of solubility in water at 25° C. was carried out for the compound obtained in Example 3 or 6, and for the compound, which was obtained through the method of Example 2 described in Japanese Patent Application Laid-Open (kokai) No. 10-310769, represented by the following formula. [drawing 17]
Further, UV spectra were measured for the two compounds in water serving as a solvent so as to measure the molar absorption coefficient ε at a wavelength of maximum absorption.

With “[5-(sodium 4-azidobenzylidene-2-sulfonate)-3-(N-(4,4′-dimethoxybutyl)carbamoyl)methyl]rhodanine” the solubility in water (in 100 g of water) was 5.4 g and the “solubility of the former compound relative to the latter (reference) compound” value (water, ratio of the invention compound to the reference compound) was “approximately five”.
